“Also recorded” adds a separate entry of the source. Where two headings read alike, the source gives them in different places. One block for each compound: values may come before it.
Tests used:
MAO-A [1] = biological target: T1, MAO-A (Homo sapiens, UniProt P21397); experiment: MAO-A inhibition, kynuramine to 4-hydroxyquinoline, HPLC-fluorescence; assay type: biochemical
T1 construct: purchased BD Biosciences (San Jose, CA) or Corning Discovery Labware (Woburn, MA)
T1 sequence (P21397 1-527): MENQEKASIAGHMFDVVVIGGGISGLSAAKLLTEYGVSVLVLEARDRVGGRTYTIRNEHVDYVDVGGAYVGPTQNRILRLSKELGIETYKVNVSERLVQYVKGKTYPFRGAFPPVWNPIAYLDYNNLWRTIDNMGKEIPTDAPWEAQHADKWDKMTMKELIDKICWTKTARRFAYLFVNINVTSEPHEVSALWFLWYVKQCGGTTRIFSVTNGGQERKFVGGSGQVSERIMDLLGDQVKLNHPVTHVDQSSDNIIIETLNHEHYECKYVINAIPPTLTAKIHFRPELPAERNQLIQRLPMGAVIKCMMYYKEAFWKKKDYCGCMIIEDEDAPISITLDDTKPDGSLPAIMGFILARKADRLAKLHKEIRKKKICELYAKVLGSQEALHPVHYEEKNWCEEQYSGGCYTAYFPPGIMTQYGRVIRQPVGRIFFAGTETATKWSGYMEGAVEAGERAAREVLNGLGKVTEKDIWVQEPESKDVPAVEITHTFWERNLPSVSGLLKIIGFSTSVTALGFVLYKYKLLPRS

MAO-B [2] = biological target: T2, MAO-B (Homo sapiens, UniProt P27338); experiment: MAO-B inhibition, kynuramine to 4-hydroxyquinoline, HPLC-fluorescence; assay type: biochemical
T2 construct: purchased BD Biosciences (San Jose, CA) or Corning Discovery Labware (Woburn, MA)
T2 sequence (P27338 1-520): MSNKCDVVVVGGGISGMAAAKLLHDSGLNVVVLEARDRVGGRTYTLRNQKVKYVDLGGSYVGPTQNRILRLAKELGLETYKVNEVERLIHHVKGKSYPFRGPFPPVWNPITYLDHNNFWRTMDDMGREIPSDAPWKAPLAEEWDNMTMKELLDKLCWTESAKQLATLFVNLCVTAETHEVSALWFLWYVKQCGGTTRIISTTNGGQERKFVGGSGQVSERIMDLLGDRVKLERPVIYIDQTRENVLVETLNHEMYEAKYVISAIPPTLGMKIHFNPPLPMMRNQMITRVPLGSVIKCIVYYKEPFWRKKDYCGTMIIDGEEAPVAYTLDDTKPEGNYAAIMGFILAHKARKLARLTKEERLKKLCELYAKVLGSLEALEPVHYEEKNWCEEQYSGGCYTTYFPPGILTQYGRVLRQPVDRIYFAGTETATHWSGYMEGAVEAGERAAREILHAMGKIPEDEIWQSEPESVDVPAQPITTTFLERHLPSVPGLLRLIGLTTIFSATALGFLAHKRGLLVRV

MAO-B [3] = biological target: T2, MAO-B; experiment: Inhibition mechanism studies (competition, time dependence) with MAO-B; assay type: biochemical
[4] = rats, 56 or 168 mg/kg/day by gavage for 14 continuous days; cited from earlier work
[5] = human, 125mg twice daily orally for 6-8 weeks; cited from earlier work
MAO-A in rat brain = conditions: cited from earlier work
MAO-A [6] = conditions: cited from earlier work
MAO-B [7] = conditions: up to 10μM; cited from earlier work
[8] = cited from earlier work
MAO-A [9] = biological target: T1, MAO-A; conditions: competitive; cited from earlier work
MAO-B [10] = biological target: T2, MAO-B; conditions: competitive; cited from earlier work
[11] = highest expected luminal concentration: curcumin 140, guaiacol 435, isoeugenol 110, pterostilbene 270, resveratrol 94, zingerone 51 µM, p < 0.05 vs control
[12] = kynuramine 10 µM, MAO-A 0.01 mg/mL, 15 min

inhibition of MAO-A activity in screening (MAO-A [1]; [11]): significantly inhibited
IC50 (MAO-A [1]; [12]): 13.4 ± 1.5 µM
MAO-A Hill coefficient (MAO-A [1]; [12]): 1.7 ± 0.3
Selectivity Index (MAO-A [1]; ratio of MAO-B IC50/MAO-A IC50): 0.0103
inhibition of MAO-B activity in screening (MAO-B [2]; [11]): significantly inhibited
IC50 (MAO-B [2]; kynuramine 10 µM, MAO-B 0.01 mg/mL, 15 min): 0.138 ± 0.013 µM
Vmax of kynuramine with MAO-B in presence of inhibitor (MAO-B [3]; pterostilbene 0.45 μM, kynuramine 2-450 μM): 3.28 ± 0.19 nmol/min/mg protein
SMILES: COc1cc(/C=C/c2ccc(O)cc2)cc(OC)c1 [pterostilbene]
mechanism of MAO-B inhibition (MAO-B [3]): competitive time-independent; also recorded: competitive, time-independent
time profile of MAO-B activity on preincubation (MAO-B [3]; 0.7 μM, preincubation 0-60 min): not significantly different from the control
oral bioavailability [4]: 80%
plasma low-density lipoproteins [5]: slightly raised
systolic and diastolic blood pressure [5]: reduces

SMILES: Oc1ccc(/C=C/c2cc(O)cc(O)c2)cc1 [resveratrol]
Ki (MAO-B [2]; from IC50 assuming competitive inhibition): 10.2 µM
IC50 (MAO-A in rat brain): 2 µM
Ki (MAO-A in rat brain): 2.5 µM
MAO-A inhibition (MAO-A [6]): inhibitor of MAO-A
MAO-B inhibition (MAO-B [7]): did not significantly inhibit
plasma protein binding [8]: 91%

SMILES: C=CCc1ccc(O)c(OC)c1 [eugenol]
Ki (MAO-A [9]): 26 µM
Ki (MAO-B [10]): 211 µM

— article PMC6364133, “Selectivity of Dietary Phenolics for Inhibition of Human Monoamine Oxidases A and B” (BioMed Research International, 2019)
